Data on four compounds can be found in PMC5131915, “Platinum(II) Iodido Complexes of 7-Azaindoles with Significant Antiproliferative Effects: An Old Story Revisited with Unexpected Outcomes” (PLoS ONE, 2016).

The subject of data set [1] is HT29 colon carcinoma cells. The settings on record: cited from earlier work.
Data set [2] deals with HCT116 colon carcinoma cells. The settings on record: cited from earlier work.
Data set [3] deals with A2780, T-47D human breast carcinoma and WiDr human colon carcinoma cell lines. On the set-up: method as in PMID 24900222. The settings on record: cited from earlier work.
The subject of the next data set is HeLa cells. Also on record: method as in PMID 22225466. The settings on record: cited from earlier work.
In data set [4] the test system is G361 malignant melanoma cells. Put plainly: In vitro cytotoxicity testing (MTT assay), G361. The class given is cell-based, human. The settings on record: 24 h drug exposure, no recovery, read-out: IC50±SD, G361. The procedure: (§1) A2780 ovarian carcinoma, A2780R cisplatin-resistant ovarian carcinoma, HOS osteosarcoma, G361 malignant melanoma, MCF7 breast carcinoma, A549 lung carcinoma, HeLa cervix carcinoma, 22Rv1 prostate carcinoma and Caco-2 colorectal carcinoma human cancer cell lines were purchased from the European Collection of Cell Cultures (ECACC), while the human non-cancerous hepatocytes (Hep) were supplied by Biopredic Intl. The cell lines were cultured, according to the suppliers`instructions, in RPMI-1640 medium supplemented with 10% of fetal calf serum, 1% of 2 mM glutamine, and 1% penicillin/streptomycin. All cell lines were grown as adherent monolayers at 37°C and 5% CO2 in a humidified atmosphere.
(§2) The cells were seeded to 96-well culture plates, pre-incubated in drug-free media at 37°C for 24 h and treated typically with the 0.01–50.0 μM solutions, prepared from the stock solutions by dilution with medium, for 24 h at 37°C. […] In parallel with compounds 1–8 and the reference drugs, the cells were also treated with vehicle (0.1% DMF in medium; negative control) and Triton X-100 (1%; positive control) to assess the minimal and maximal cell damage, respectively. The MTT assay was used to determine the cell viability; MTT = 3-(4,5-dimethylthiazol-2-yl)-2,5-diphenyltetrazolium bromide. A concentration of the formed dye was evaluated spectrophotometrically at 540 nm (TECAN, Schoeller Instruments LLC).
(§3) The data were expressed as the percentage of viability, where 100% and 0% represents the treatments with negative and positive controls, respectively. The data from the cancer cells were acquired from three independent experiments (conducted in triplicate) using cells from different passages. The resulting IC50 values (μM) were calculated from viability curves and the results are presented as arithmetic mean±SD.

In a further data set the test system is HOS osteosarcoma cells. Kind of data set: In vitro cytotoxicity testing (MTT assay), HOS. The settings on record: 24 h drug exposure, no recovery, MTT; read-out: IC50±SD, HOS. The format is cell-based, human. The procedure: as §1, §2, §3
Data set [5] has as its system 22Rv1 prostate carcinoma cells. Kind of data set: In vitro cytotoxicity testing (MTT assay), 22Rv1. The format is cell-based, human. The settings on record: 24 h drug exposure, no recovery, read-out: IC50±SD, 22Rv1. The procedure: as §1, §2, §3
(Tetrazolium dyes change colour on reduction, which living cells bring about.)

In data set [6] the test system is Caco-2 colorectal carcinoma cells. Kind of data set: In vitro cytotoxicity testing (MTT assay), Caco-2. The settings on record: 24 h drug exposure, no recovery, MTT; read-out: IC50±SD, Caco-2. The class given is cell-based, human. As for the experimental part: (§4) All cell lines were grown as adherent monolayers at 37°C and 5% CO2 in a humidified atmosphere.
(§5) The MTT assay was used to determine the cell viability; MTT = 3-(4,5-dimethylthiazol-2-yl)-2,5-diphenyltetrazolium bromide. A concentration of the formed dye was evaluated spectrophotometrically at 540 nm (TECAN, Schoeller Instruments LLC).
as §3

Data set [7] deals with A2780 ovarian carcinoma cells. Put plainly: In vitro cytotoxicity testing (MTT assay), A2780. The settings on record: 24 h drug exposure, no recovery, MTT; read-out: IC50±SD, A2780. The class given is cell-based, human. The procedure: as §4, §5, §3
For data set [8], the system named is human non-cancerous hepatocytes (Hep). Kind of data set: In vitro cytotoxicity testing (MTT assay), hepatocytes. The class given is cell-based. The settings on record: 24 h drug exposure, no recovery. The procedure:
as §1, §2, §3

The subject of data set [9] is A549 lung carcinoma cells. Put plainly: In vitro cytotoxicity testing (MTT assay), A549. The class given is cell-based, human. The settings on record: 24 h drug exposure, no recovery, read-out: IC50±SD, A549. As for the experimental part:
as §1, §2, §3

For data set [10], the system named is HeLa cervix carcinoma cells. Kind of data set: In vitro cytotoxicity testing (MTT assay), HeLa. The class given is cell-based, human. The settings on record: 24 h drug exposure, no recovery, read-out: IC50±SD, HeLa. The procedure: as §1, §2, §3
Data set [11] deals with MCF7 breast carcinoma cells. Kind of data set: In vitro cytotoxicity testing (MTT assay), MCF7. The settings on record: 24 h drug exposure, no recovery, read-out: IC50±SD, MCF7. The format is cell-based, human. The procedure: as §1, §2, §3
Data set [12] is described as follows: Hydrophobicity studies (logP determination), octanol/water, ICP-MS. The format is physicochemical. The settings on record: octanol/water (0.2 M KI). The procedure: Complexes 4 and 6 (1 mmol) were ultrasonicated for 15 min in 10 mL of OSW, centrifuged and supernatants were collected. Aliquots (5 mL) of the obtained OSW solutions of complexes 4 and 6 were added to WSO (5 mL) and shaken for 2 h at ambient temperature. After that, the mixtures were centrifuged and aqueous layer was separated carefully. The platinum concentration was determined from OSW aliquots taken before ([Pt]OSWb) and after ([Pt]OSWa) partition by ICP-MS (ICP-MS spectrometer 7700x, Agilent) with the obtained values corrected for the adsorption effects. logP = log([Pt]WSO/[Pt]OSWa) equation was used for the partition coefficients calculation; [Pt]WSO = [Pt]OSWb−[Pt]OSWa. The experiments were conducted in triplicate.

Another data set relates to A2780 cells. Put plainly: Cellular accumulation of platinum (ICP-MS). The class given is cell-based, human. The conditions noted are these: 24 h treatment at IC50 concentration. The procedure: The A2780 cells were seeded in 6-well culture plates (1×10^6 cells per well) and incubated overnight (37°C and 5% CO2 in a humidified incubator). […] The cells were washed with PBS (2 × 2 mL) after 24 h treatment, harvested by trypsin treatment, collected and centrifuged in PBS. The supernatants were discarded after centrifugation and pellets were digested in 500 μL of nitric acid (3 min at 150°C) using a microwave system Monowave300 (Anton Paar). Solutions were diluted with 4.5 mL of water and the platinum content was determined by ICP-MS. The obtained values were corrected for adsorption effects. The experiments were conducted in triplicate and the results are presented as arithmetic mean±SD.

The test system of data set [13] is A2780R cisplatin-resistant ovarian carcinoma cells. Kind of data set: In vitro cytotoxicity testing (MTT assay), A2780R. The class given is cell-based, human. As for the experimental part:
as §4, §5, §3

With `O=C1[O][Pt]2([NH][C@@H]3CCCC[C@H]3[NH]2)[O]C1=O` [oxaliplatin], the IC50 (commonly the concentration that inhibits the measured activity by half) in [1] was 700 nM; in data set [2], 300 nM.

As to `CC(C)N.CC(C)N.[I][Pt][I]` [cis-[PtI2(ipam)2]], the “times more potent than cisplatin” value in [3] is given as not above 11 times.

Consider `C[NH+](C)[Pt-2]([I])([I])[NH+](C)C` [trans-[PtI2(L1)2]], for which the “factor by which activity of cisplatin is exceeded” value in the data set with HeLa cells is listed as approximately 6.

As to `Ic1c[nH]c2c1ccc[n+]2[Pt-2]([I])([I])[n+]1cccc2c(I)c[nH]c21` [Complex 4, cis-[PtI2(3Iaza)2]], the IC50 in data set [4] is 1600 ± 700 nM; in the data set with HOS osteosarcoma cells, 2800 ± 1000 nM; in [5], 4500 ± 1600 nM; in data set [6] it was 3300 ± 100 nM; in data set [7], 2300 ± 1100 nM; in [8], 11800 nM. The half-maximal inhibitory concentration (IC50) in data set [9] turned out to be 9800 ± 1300 nM; in data set [10], 6200 ± 700 nM; in [11], 1800 ± 300 nM; in data set [13] (24 h drug exposure, no recovery, MTT, read-out: IC50±SD, A2780R) it was 2600 ± 800 nM. Moreover, in [12], the lipophilicity (logP) (in general, a log measure of how a compound divides between an organic and an aqueous phase) amounted to 0.41. This compound also displayed a cellular accumulation in the data set with A2780 cells of 354±63 pmol Pt/10^6 A2780 cells. For the same compound, in data set [13] (24 h IC50 values), the “resistance factor (RF), IC50(A2780R)/IC50(A2780)” value came to 1.13.
